Results reported in patent US9962334B2, “Ophthalmic device having therapeutic agent delivery capability and method of forming same” (Novartis AG, priority 2008, dated 2018).
Marks after values point to notes of the source that are not given here.

Tests used:
[1] = cited from earlier work
[2] = cited from earlier work; remark: listed apart in the source
[3] = system: LEC migration and proliferation; test: In vitro inhibition of LEC migration and proliferation; type: cell-based; conditions: in vitro studies

SMILES | log P (PC log P) [2] | Exp. Log P/Hydrophobicity [2] | other results
O=C(O)Cc1ccccc1Nc1c(Cl)cccc1Cl [Diclofenac] |  |  | soluble in water up to [1]: up to 50 mg/mL
O=C(O)Cc1ccccc1Nc1c(Cl)cccc1Cl [Diclofenac Sodium] | 1.1 |  | 
COc1cc2c(c(OC)c1OC)-c1ccc(OC)c(=O)cc1[C@@H](NC(C)=O)CC2 [Colchicine] | 1.3 | 1.3 | concentration as low as which LEC migration and proliferation was inhibited [3]: 0.0005 mg/mL
Nc1c(CC(=O)O)cccc1C(=O)c1ccc(Br)cc1 [Bromfenac] |  |  | Water Solubility [1]: 0.0126 mg/mL
O=C1O[C@H]([C@@H](O)CO)C(O)=C1O [Ascorbic Acid] |  | −0.5 | 
O=C(c1ccccc1)c1ccc2n1CCC2C(=O)O (stereo not drawn) [Ketorolac] |  | 2.1 | Water Solubility [1]: 25 mg/mL
NC(=O)Cc1cccc(C(=O)c2ccccc2)c1N [Nepafenac] | 2.1 | 2.11* | 
CO[C@@]12[C@H](COC(N)=O)C3=C(C(=O)C(C)=C(N)C3=O)N1C[C@@H]1N[C@@H]12 [Mitomycin-C] |  |  | concentration as low as which LEC migration and proliferation was inhibited [3]: 0.0005 mg/mL
